Experimental data as given in ChEMBL document CHEMBL5131496, “Adiponectin-Secretion-Promoting Cyclic Peptide-Polyketide Hybrids from a Halophyte-Associated Fungus, Colletotrichum gloeosporioides JS0417” (J Nat Prod, 2022).
The source made the active and inactive calls. The rule behind the calls is not given here.

How the values were obtained:
Mesenchymal stem cells [1] = experiment: Induction of adiponectin secretion in human differentiated BMMSC cells measured at 5 day in the presence of IDX induction medium by ELISA; assay type: functional, cell-based; settings: for EC50: 120 h
HaCaT [2] = experiment: Antiinflammatory activity against human HaCaT cells assessed as inhibition of UVB irradiation-induced PGE2 production measured after 2 hrs by ELISA; assay type: functional, cell-based; settings: light or radiation study
Mesenchymal stem cells [3] = experiment: Induction of adiponectin secretion in human differentiated BMMSC cells assessed as increase in lipid droplet accumulation at 300 uM in the presence of IDX induction medium by Oil red O staining based inverted phase contrast microscope analysis; assay type: functional, cell-based
Mesenchymal stem cells [4] = experiment: Induction of adiponectin secretion in human differentiated BMMSC cells at 30 uM in the presence of IDX induction medium and measured on 5 day by ELISA relative to control; assay type: functional
Mesenchymal stem cells [5] = experiment: Induction of adiponectin secretion in human differentiated BMMSC cells assessed as increase in size of lipid droplet at 30 uM in the presence of IDX induction medium by Oil red O staining based inverted phase contrast microscope analysis; assay type: functional, cell-based
Mesenchymal stem cells [6] = experiment: Induction of adiponectin secretion in human differentiated BMMSC cells assessed as increase in number of lipid droplet at 30 uM in the presence of IDX induction medium by Oil red O staining based inverted phase contrast microscope analysis; assay type: functional, cell-based
HaCaT [7] = experiment: Antiinflammatory activity against human HaCaT cells assessed as inhibition of UVB irradiation-induced PGE2 production at 10 uM measured after 2 hrs by ELISA; assay type: functional, cell-based

EC50 (Mesenchymal stem cells [1])	Compound	IC50 (HaCaT [2])	Activity (Mesenchymal stem cells [4])	also measured
22.7 µM	CC[C@H](C)[C@H]1C(=O)O[C@H]([C@@H](C)CCCC[C@@H](C)O)C[C@@H](O)[C@@H](C)C(=O)N[C@H](Cc2ccccc2)C(=O)N1C	–	123%	Activity (Mesenchymal stem cells [5]): Active; Activity (Mesenchymal stem cells [6]): Active
2.8 µM	COc1ccc(Cl)cc1C(=O)NCCc1ccc(S(=O)(=O)NC(=O)NC2CCCCC2)cc1 [GLYBURIDE]	–	–	–
29.4 µM	CC(C)C[C@H]1NC(=O)[C@H](C)[C@H](O)C[C@@H]([C@@H](C)CCCC[C@@H](C)O)OC(=O)[C@H](CC(C)C)N(C)C1=O	–	116%	Activity (Mesenchymal stem cells [5]): Active; Activity (Mesenchymal stem cells [6]): Active

The next lines start with the molecule.

Compound	EC50 (Mesenchymal stem cells [1])	IC50 (HaCaT [2])	Activity (Mesenchymal stem cells [4])	also measured
CC(=O)Oc1ccccc1C(=O)O [ASPIRIN]	> 300 µM	21.3 µM	–	Activity (Mesenchymal stem cells [3]): Active
OCCc1c[nH]c2ccccc12 [TRYPTOPHOL]	–	6.55 µM	–	Activity (Mesenchymal stem cells [1]; DDE = dose-dependent effect): Dde; Activity (Mesenchymal stem cells [3]): Active; Activity (HaCaT [7]): Active
CCC(C)/C=C/CC(C)/C=C/C(=O)O[C@@H]1[C@@H](O)[C@H](c2c(C)cc(O)cc2O)O[C@H](CO)[C@H]1O (stereo partly drawn)	–	–	78%	–
Oc1ccc(/C=C/c2cc(O)cc(O)c2)cc1 [RESVERATROL]	–	18.3 µM	–	–
